According to ChEMBL document CHEMBL1144896 (2003):

Experiments:
[1] = system: BJ; assay: Compound was tested for cytomegalovirus or (pPCMV-SEAP) activity in immortalized hTERT-BJ1 at 2.2 uM concentration; format: functional, Homo sapiens
[2] = system: NCI-H1299; assay: Compound was tested for human telomerase reverse transcriptase-SEAP (hTERT-SEAP) activity in non-small cell lung cancer H1299 cell at 22 uM concentration; format: functional
[3] = system: BJ; assay: hTERT-SEAP (Human telomerase reverse transcriptase-SEAP) activity in immortalized hTERT-BJI at 22 uM concentration and level of cell viability determined in MTT assay; format: functional
[4] = system: BJ; assay: pPCMV-SEAP (cytomegalovirus-SEAP) activity in immortalized hTERT-BJ1 at 22 uM concentration and level of cell viability determined in MTT assay; format: functional, Homo sapiens
[5] = system: NCI-H1299; assay: hTERT-SEAP (Human telomerase reverse transcriptase-SEAP) activity in non-small cell lung cancer H1299 cell at 220.0 uM concentration and level of cell viability determined in MTT assay; format: functional
[6] = system: BJ; assay: pPCMV-SEAP (cytomegalovirus-SEAP) activity in immortalized hTERT-BJ1 at 2.2 uM concentration and level of cell viability determined in MTT assay; format: functional, Homo sapiens
[7] = system: BJ; assay: hTERT-SEAP (Human telomerase reverse transcriptase-SEAP) activity in immortalized hTERT-BJI at 220.0 uM concentration and level of cell viability determined in MTT assay; format: functional
[8] = system: NCI-H1299; assay: Compound was tested for human telomerase reverse transcriptase-SEAP (hTERT-SEAP) activity in non-small cell lung cancer H1299 cell at 220.0 uM concentration; format: functional
[9] = system: BJ; assay: Compound was tested for human telomerase reverse transcriptase-SEAP (hTERT-SEAP) activity in immortalized hTERT-BJI at 220.0 uM concentration; format: functional
[10] = system: BJ; assay: Compound was tested for cytomegalovirus or (pPCMV-SEAP) activity in immortalized hTERT-BJ1 at 22 uM concentration; format: functional, Homo sapiens
[11] = system: BJ; assay: Compound was tested for human telomerase reverse transcriptase-SEAP (hTERT-SEAP) activity in immortalized hTERT-BJI at 22 uM concentration; format: functional
[12] = system: NCI-H1299; assay: Compound was tested for human telomerase reverse transcriptase-SEAP (hTERT-SEAP) activity in non-small cell lung cancer H1299 cell at 2.2 uM concentration; format: functional
[13] = system: BJ; assay: hTERT-SEAP (Human telomerase reverse transcriptase-SEAP) activity in immortalized hTERT-BJI at 2.2 uM concentration and level of cell viability determined in MTT assay; format: functional
[14] = system: NCI-H1299; assay: hTERT-SEAP (Human telomerase reverse transcriptase-SEAP) activity in non-small cell lung cancer H1299 cell at 22 uM concentration and level of cell viability determined in MTT assay; format: functional
[15] = system: BJ; assay: Compound was tested for human telomerase reverse transcriptase-SEAP (hTERT-SEAP) activity in immortalized hTERT-BJI at 2.2 uM concentration; format: functional
[16] = system: BJ; assay: Compound was tested for cytomegalovirus or (pPCMV-SEAP) activity in immortalized hTERT-BJ1 at 220 uM concentration; format: functional, Homo sapiens
[17] = system: NCI-H1299; assay: hTERT-SEAP (Human telomerase reverse transcriptase-SEAP) activity in non-small cell lung cancer H1299 cell at 2.2 uM concentration and level of cell viability determined in MTT assay; format: functional
[18] = system: BJ; assay: pPCMV-SEAP (cytomegalovirus-SEAP) activity in immortalized hTERT-BJ1 at 220 uM concentration and level of cell viability determined in MTT assay; format: functional, Homo sapiens
[19] = system: NCI-H1299; assay: hTERT-SEAP (Human telomerase reverse transcriptase-SEAP) activity in non-small cell lung cancer H1299 cell at 280.0 uM concentration and level of cell viability determined in MTT assay; format: functional
[20] = system: BJ; assay: Compound was tested for human telomerase reverse transcriptase-SEAP (hTERT-SEAP) activity in immortalized hTERT-BJI at 28.0 uM concentration; format: functional
[21] = system: NCI-H1299; assay: Compound was tested for human telomerase reverse transcriptase-SEAP (hTERT-SEAP) activity in non-small cell lung cancer H1299 cell at 280.0 uM concentration; format: functional
[22] = system: NCI-H1299; assay: hTERT-SEAP (Human telomerase reverse transcriptase-SEAP) activity in non-small cell lung cancer H1299 cell at 28 uM concentration and level of cell viability determined in MTT assay; format: functional
[23] = system: BJ; assay: Compound was tested for human telomerase reverse transcriptase-SEAP (hTERT-SEAP) activity in immortalized hTERT-BJI at 280.0 uM concentration; format: functional
[24] = system: NCI-H1299; assay: Compound was tested for human telomerase reverse transcriptase-SEAP (hTERT-SEAP) activity in non-small cell lung cancer H1299 cell at 2.8 uM concentration; format: functional
[25] = system: BJ; assay: hTERT-SEAP (Human telomerase reverse transcriptase-SEAP) activity in immortalized hTERT-BJI at 28.0 uM concentration and level of cell viability determined in MTT assay; format: functional
[26] = system: NCI-H1299; assay: hTERT-SEAP (Human telomerase reverse transcriptase-SEAP) activity in non-small cell lung cancer H1299 cell at 2.8 uM concentration and level of cell viability determined in MTT assay; format: functional
[27] = system: BJ; assay: hTERT-SEAP (Human telomerase reverse transcriptase-SEAP) activity in immortalized hTERT-BJI at 2.8 uM concentration and level of cell viability determined in MTT assay; format: functional
[28] = system: BJ; assay: hTERT-SEAP (Human telomerase reverse transcriptase-SEAP) activity in immortalized hTERT-BJI at 280.0 uM concentration and level of cell viability determined in MTT assay; format: functional
[29] = system: NCI-H1299; assay: Compound was tested for human telomerase reverse transcriptase-SEAP (hTERT-SEAP) activity in non-small cell lung cancer H1299 cell at 28.0 uM concentration; format: functional
[30] = system: BJ; assay: Compound was tested for human telomerase reverse transcriptase-SEAP (hTERT-SEAP) activity in immortalized hTERT-BJI at 2.8 uM concentration; format: functional
[31] = system: BJ; assay: Compound was tested for human telomerase reverse transcriptase-SEAP (hTERT-SEAP) activity in immortalized hTERT-BJI at 190.0 uM concentration; format: functional
[32] = system: BJ; assay: Compound was tested for human telomerase reverse transcriptase-SEAP (hTERT-SEAP) activity in immortalized hTERT-BJI at 19 uM concentration; format: functional
[33] = system: NCI-H1299; assay: Compound was tested for human telomerase reverse transcriptase-SEAP (hTERT-SEAP) activity in non-small cell lung cancer H1299 cell at 1.9 uM concentration; format: functional
[34] = system: NCI-H1299; assay: Compound was tested for human telomerase reverse transcriptase-SEAP (hTERT-SEAP) activity in non-small cell lung cancer H1299 cell at 19 uM concentration; format: functional
[35] = system: NCI-H1299; assay: hTERT-SEAP (Human telomerase reverse transcriptase-SEAP) activity in non-small cell lung cancer H1299 cell at 19 uM concentration and level of cell viability determined in MTT assay; format: functional
[36] = system: BJ; assay: hTERT-SEAP (Human telomerase reverse transcriptase-SEAP) activity in immortalized hTERT-BJI at 19 uM concentration and level of cell viability determined in MTT assay; format: functional
[37] = system: BJ; assay: hTERT-SEAP (Human telomerase reverse transcriptase-SEAP) activity in immortalized hTERT-BJI at 190.0 uM concentration and level of cell viability determined in MTT assay; format: functional
[38] = system: NCI-H1299; assay: hTERT-SEAP (Human telomerase reverse transcriptase-SEAP) activity in non-small cell lung cancer H1299 cell at 1.9 uM concentration and level of cell viability determined in MTT assay; format: functional
[39] = system: NCI-H1299; assay: hTERT-SEAP (Human telomerase reverse transcriptase-SEAP) activity in non-small cell lung cancer H1299 cell at 190.0 uM concentration and level of cell viability determined in MTT assay; format: functional
[40] = system: NCI-H1299; assay: Compound was tested for human telomerase reverse transcriptase-SEAP (hTERT-SEAP) activity in non-small cell lung cancer H1299 cell at 190.0 uM concentration; format: functional
[41] = system: BJ; assay: hTERT-SEAP (Human telomerase reverse transcriptase-SEAP) activity in immortalized hTERT-BJI at 230.0 uM concentration and level of cell viability determined in MTT assay; format: functional
[42] = system: NCI-H1299; assay: hTERT-SEAP (Human telomerase reverse transcriptase-SEAP) activity in non-small cell lung cancer H1299 cell at 230.0 uM concentration and level of cell viability determined in MTT assay; format: functional
[43] = system: NCI-H1299; assay: Compound was tested for human telomerase reverse transcriptase-SEAP (hTERT-SEAP) activity in non-small cell lung cancer H1299 cell at 23 uM concentration; format: functional
[44] = system: BJ; assay: Compound was tested for human telomerase reverse transcriptase-SEAP (hTERT-SEAP) activity in immortalized hTERT-BJI at 23 uM concentration; format: functional
[45] = system: BJ; assay: hTERT-SEAP (Human telomerase reverse transcriptase-SEAP) activity in immortalized hTERT-BJI at 23 uM concentration and level of cell viability determined in MTT assay; format: functional
[46] = system: NCI-H1299; assay: (§1) hTERT-SEAP (Human telomerase reverse transcriptase-SEAP) activity in non-small cell lung cancer H1299 cell at 2.3 uM concentration and level of cell viability determined in MTT assay; format: functional
[47] = system: NCI-H1299; assay: (§2) Compound was tested for human telomerase reverse transcriptase-SEAP (hTERT-SEAP) activity in non-small cell lung cancer H1299 cell at 2.3 uM concentration; format: functional
[48] = system: BJ; assay: Compound was tested for human telomerase reverse transcriptase-SEAP (hTERT-SEAP) activity in immortalized hTERT-BJI at 230.0 uM concentration; format: functional
[49] = system: NCI-H1299; assay: as §1; format: functional; remark: listed apart in the source
[50] = system: NCI-H1299; assay: Compound was tested for human telomerase reverse transcriptase-SEAP (hTERT-SEAP) activity in non-small cell lung cancer H1299 cell at 230.0 uM concentration; format: functional
[51] = system: NCI-H1299; assay: as §2; format: functional; remark: listed apart in the source
[52] = system: NCI-H1299; assay: hTERT-SEAP (Human telomerase reverse transcriptase-SEAP) activity in non-small cell lung cancer H1299 cell at 23 uM concentration and level of cell viability determined in MTT assay; format: functional

Nc1ccccc1Sc1cccc2c1C(=O)c1cccc(Sc3ccccc3N)c1C2=O
Relative SEAP activity [1]: 103% | Relative SEAP activity [2]: 96% | Relative viability [3]: 107% | Relative viability [4]: 109% | Relative viability [5]: 14% | Relative viability [6]: 108% | Relative viability [7]: 25% | Relative SEAP activity [8]: 59% | Relative SEAP activity [9]: 115% | Relative SEAP activity [10]: 102% | Relative SEAP activity [11]: 141% | Relative SEAP activity [12]: 108% | Relative viability [13]: 103% | Relative viability [14]: 50% | Relative SEAP activity [15]: 136% | Relative SEAP activity [16]: 122% | Relative viability [17]: 94% | Relative viability [18]: 48%

O=C1c2cccc(SCCO)c2C(=O)c2cccc(SCCO)c21
Relative viability [19]: 36% | Relative SEAP activity [20]: 98% | Relative SEAP activity [21]: 45% | Relative viability [22]: 29% | Relative SEAP activity [23]: 71% | Relative SEAP activity [24]: 97% | Relative viability [25]: 49% | Relative viability [26]: 54% | Relative viability [27]: 94% | Relative viability [28]: 23% | Relative SEAP activity [29]: 76% | Relative SEAP activity [30]: 104%

O=C(Oc1cccc2c1C(=O)c1cccc(OC(=O)c3ccccc3Cl)c1C2=O)c1ccccc1Cl
Relative SEAP activity [31]: 97% | Relative SEAP activity [32]: 116% | Relative SEAP activity [33]: 93% | Relative SEAP activity [34]: 101% | Relative viability [35]: 34% | Relative viability [36]: 92% | Relative viability [37]: 40% | Relative viability [38]: 74% | Relative viability [39]: 30% | Relative SEAP activity [40]: 97%

O=C(Oc1cccc2c1C(=O)c1cccc(OC(=O)c3ccc(Cl)cc3)c1C2=O)c1ccc(Cl)cc1
Relative SEAP activity [31]: 107% | Relative SEAP activity [32]: 123% | Relative SEAP activity [33]: 106% | Relative SEAP activity [34]: 106% | Relative viability [35]: 57% | Relative viability [36]: 89% | Relative viability [37]: 48% | Relative viability [38]: 91% | Relative viability [39]: 31% | Relative SEAP activity [40]: 97%

O=C1c2cccc(Sc3ncccn3)c2C(=O)c2cccc(Sc3ncccn3)c21
Relative viability [41]: 73% | Relative viability [42]: 44% | Relative SEAP activity [43]: 110% | Relative SEAP activity [44]: 125% | Relative viability [45]: 103% | Relative viability [46]: 107% | Relative SEAP activity [47]: 137% | Relative SEAP activity [48]: 61% | Relative viability [49]: 104% | Relative SEAP activity [50]: 49% | Relative SEAP activity [51]: 105% | Relative viability [52]: 99%
